Source: patent publication US10947289B2, “Glyco-modified atrial natriuretic peptide” (priority 2013, dated 2021)

What was measured:
human GC-A = target: T1, human GC-A (Homo sapiens, UniProt P16066); assay: cGMP elevating activity in CHO/human GC-A cells (Test Example 1); type: cell-based
T1 construct: expressed in transfected cells; host or cells: CHO cells
T1 sequence (P16066 33-1061): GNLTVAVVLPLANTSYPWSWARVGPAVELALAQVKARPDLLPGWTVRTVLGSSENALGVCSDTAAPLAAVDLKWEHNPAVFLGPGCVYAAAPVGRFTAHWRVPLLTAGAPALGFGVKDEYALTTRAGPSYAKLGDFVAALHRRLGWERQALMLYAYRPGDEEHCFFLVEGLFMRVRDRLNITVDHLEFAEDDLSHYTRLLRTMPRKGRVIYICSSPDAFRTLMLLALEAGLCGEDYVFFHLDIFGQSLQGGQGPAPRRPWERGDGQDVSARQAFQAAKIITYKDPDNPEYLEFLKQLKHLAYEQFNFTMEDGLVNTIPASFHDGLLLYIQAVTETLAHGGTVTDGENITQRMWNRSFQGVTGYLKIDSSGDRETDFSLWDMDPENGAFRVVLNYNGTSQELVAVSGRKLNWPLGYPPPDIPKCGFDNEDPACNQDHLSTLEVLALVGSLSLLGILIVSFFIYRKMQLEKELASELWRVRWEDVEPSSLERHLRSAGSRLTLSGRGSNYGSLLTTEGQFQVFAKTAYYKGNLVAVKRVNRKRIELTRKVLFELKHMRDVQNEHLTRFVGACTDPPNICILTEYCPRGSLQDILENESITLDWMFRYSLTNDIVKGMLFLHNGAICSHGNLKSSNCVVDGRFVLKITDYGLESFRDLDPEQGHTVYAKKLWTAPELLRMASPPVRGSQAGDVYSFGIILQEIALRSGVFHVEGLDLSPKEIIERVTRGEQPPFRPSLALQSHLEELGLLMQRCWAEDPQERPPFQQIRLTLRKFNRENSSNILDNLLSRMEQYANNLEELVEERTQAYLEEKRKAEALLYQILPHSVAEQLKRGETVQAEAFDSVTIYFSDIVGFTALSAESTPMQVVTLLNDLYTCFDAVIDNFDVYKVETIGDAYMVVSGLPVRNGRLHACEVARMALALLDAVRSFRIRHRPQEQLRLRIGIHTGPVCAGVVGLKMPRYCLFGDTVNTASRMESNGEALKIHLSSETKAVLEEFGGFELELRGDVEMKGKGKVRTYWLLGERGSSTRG
In short: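 cGMP in lysates was read by HTRF after a 15 min peptide exposure of GC-A-expressing CHO cells in a CO2 incubator, following 10 min room-temperature preincubation with 1.6 mM IBMX in KRB. T/C values were normalised between solvent wells (0) and 1 nM ANP wells (1).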

[1] = Detection of test substance in rat plasma by LC-MS/MS (Test Example 3); type: in vivo; conditions: rat plasma, 100 nmol/kg i.v., LC-MS/MS; time at which the test substance was finally detected
Protocol: Before the administration and 15, 30, 60, 90, 120, 180, and 240 minutes after the administration, blood was sampled (200 μL/sampling) over time from the jugular vein. The blood samples were immediately left on ice.
The collected blood samples were centrifuged at 5000 rpm at 4° C. for 5 minutes by use of a centrifuge (Sigma 4K15, rotor: Nr12130-H). The separated plasma samples were divided into two types (samples for PK measurement and for cGMP measurement) and stored at −80° C. until measurement.
An internal standard (20 μL (500 nM) of a stable isotope of hANP) and an acetic acid mixed solvent (AcOH/distilled water/DMSO=5/3/2, v/v/v) were added to 50 μL of each rat plasma sample prepared in (1) and then mixed therewith. The mixture was transferred to Amicon Ultra-0.5 50K (Millipore Corp., MA) and centrifuged at 14000 rpm at 15° C. for 30 minutes. The obtained filtrate was transferred to Amicon Ultra-0.5 3K (Millipore Corp., MA) and centrifuged again under the aforementioned conditions. The solution remaining on the filter was recovered and transferred to a 96-well deep well plate. The content of the test substance was measured by LC-MS/MS (LC: Shimadzu LC-10ADVP (Shimadzu Corp.), MS/MS: API 4000 QTrap (AB SCIEX)) to calculate the concentration in plasma. The time at which the test substance was finally detected is shown in the rightmost column of Table 2.

Compound	EC50 (human GC-A) [nM]	Maximum time of detection after administration [1] [h]
CC[C@H](C)[C@@H]1NC(=O)[C@H](CCCNC(=N)N)NC(=O)[C@H](CC(=O)O)NC(=O)[C@H](CCSC)NC(=O)[C@H](CCCNC(=N)N)NC(=O)CNC(=O)CNC(=O)[C@H](Cc2ccccc2)NC(=O)[C@@H](NC(=O)[C@H](CO)NC(=O)[C@H](CO)NC(=O)[C@H](CCCNC(=N)N)NC(=O)[C@H](CCCNC(=N)N)NC(=O)[C@H](CC(C)C)NC(=O)[C@H](CO)NC(=O)CNC(=O)[C@H](CSC2CC(=O)N(CCC(=O)NCCO[C@@H]3O[C@H](CO)[C@@H](O[C@@H]4O[C@H](CO)[C@@H](O[C@@H]5O[C@H](CO[C@H]6O[C@H](CO)[C@@H](O)[C@H](O)[C@@H]6O[C@@H]6O[C@H](CO)[C@@H](O[C@@H]7O[C@H](CO[C@]8(C(=O)O)C[C@H](O)[C@@H](NC(C)=O)[C@H]([C@H](O)[C@H](O)CO)O8)[C@H](O)[C@H](O)[C@H]7O)[C@H](O)[C@H]6NC(C)=O)[C@@H](O)[C@H](O[C@H]6O[C@H](CO)[C@@H](O)[C@H](O)[C@@H]6O[C@@H]6O[C@H](CO)[C@@H](O[C@@H]7O[C@H](CO[C@]8(C(=O)O)C[C@H](O)[C@@H](NC(C)=O)[C@H]([C@H](O)[C@H](O)CO)O8)[C@H](O)[C@H](O)[C@H]7O)[C@H](O)[C@H]6NC(C)=O)[C@@H]5O)[C@H](O)[C@H]4NC(C)=O)[C@H](O)[C@H]3NC(C)=O)C2=O)NC(=O)CNC(=O)[C@H](CSC2CC(=O)N(CCC(=O)NCCO[C@@H]3O[C@H](CO)[C@@H](O[C@@H]4O[C@H](CO)[C@@H](O[C@@H]5O[C@H](CO[C@H]6O[C@H](CO)[C@@H](O)[C@H](O)[C@@H]6O[C@@H]6O[C@H](CO)[C@@H](O[C@@H]7O[C@H](CO[C@]8(C(=O)O)C[C@H](O)[C@@H](NC(C)=O)[C@H]([C@H](O)[C@H](O)CO)O8)[C@H](O)[C@H](O)[C@H]7O)[C@H](O)[C@H]6NC(C)=O)[C@@H](O)[C@H](O[C@H]6O[C@H](CO)[C@@H](O)[C@H](O)[C@@H]6O[C@@H]6O[C@H](CO)[C@@H](O[C@@H]7O[C@H](CO[C@]8(C(=O)O)C[C@H](O)[C@@H](NC(C)=O)[C@H]([C@H](O)[C@H](O)CO)O8)[C@H](O)[C@H](O)[C@H]7O)[C@H](O)[C@H]6NC(C)=O)[C@@H]5O)[C@H](O)[C@H]4NC(C)=O)[C@H](O)[C@H]3NC(C)=O)C2=O)NC(=O)CNC(=O)[C@H](CSC2CC(=O)N(CCC(=O)NCCO[C@@H]3O[C@H](CO)[C@@H](O[C@@H]4O[C@H](CO)[C@@H](O[C@@H]5O[C@H](CO[C@H]6O[C@H](CO)[C@@H](O)[C@H](O)[C@@H]6O[C@@H]6O[C@H](CO)[C@@H](O[C@@H]7O[C@H](CO[C@]8(C(=O)O)C[C@H](O)[C@@H](NC(C)=O)[C@H]([C@H](O)[C@H](O)CO)O8)[C@H](O)[C@H](O)[C@H]7O)[C@H](O)[C@H]6NC(C)=O)[C@@H](O)[C@H](O[C@H]6O[C@H](CO)[C@@H](O)[C@H](O)[C@@H]6O[C@@H]6O[C@H](CO)[C@@H](O[C@@H]7O[C@H](CO[C@]8(C(=O)O)C[C@H](O)[C@@H](NC(C)=O)[C@H]([C@H](O)[C@H](O)CO)O8)[C@H](O)[C@H](O)[C@H]7O)[C@H](O)[C@H]6NC(C)=O)[C@@H]5O)[C@H](O)[C@H]4NC(C)=O)[C@H](O)[C@H]3NC(C)=O)C2=O)NC(C)=O)CSSC[C@@H](C(=O)N[C@@H](CC(N)=O)C(=O)N[C@@H](CO)C(=O)N[C@@H](Cc2ccccc2)C(=O)N[C@@H](CCCNC(=N)N)C(=O)N[C@@H](Cc2ccc(O)cc2)C(=O)O)NC(=O)CNC(=O)[C@H](CC(C)C)NC(=O)CNC(=O)[C@H](CO)NC(=O)[C@H](CCC(N)=O)NC(=O)[C@H](C)NC(=O)CNC1=O (stereo partly shown) [Compound 2-15, [(SG-)Cys-Gly]3-hANP(1-28)]	3.1	1.5
CC[C@H](C)[C@@H]1NC(=O)[C@H](CCCNC(=N)N)NC(=O)[C@H](CC(=O)O)NC(=O)[C@H](CCSC)NC(=O)[C@H](CCCNC(=N)N)NC(=O)CNC(=O)CNC(=O)[C@H](Cc2ccccc2)NC(=O)[C@@H](NC(=O)[C@H](CO)NC(=O)[C@H](CO)NC(=O)[C@H](CCCNC(=N)N)NC(=O)[C@H](CCCNC(=N)N)NC(=O)[C@H](CC(C)C)NC(=O)[C@H](CO)NC(=O)CCOCCOCCOCCOCCOCCOCCOCCOCCOCCOCCOCCOCCNC(=O)[C@H](CC(=O)N[C@@H]2O[C@H](CO)[C@@H](O[C@@H]3O[C@H](CO)[C@@H](O[C@@H]4O[C@H](CO[C@H]5O[C@H](CO)[C@@H](O)[C@H](O)[C@@H]5O[C@@H]5O[C@H](CO)[C@@H](O[C@@H]6O[C@H](CO[C@]7(C(=O)O)C[C@H](O)[C@@H](NC(C)=O)[C@H]([C@H](O)[C@H](O)CO)O7)[C@H](O)[C@H](O)[C@H]6O)[C@H](O)[C@H]5NC(C)=O)[C@@H](O)[C@H](O[C@H]5O[C@H](CO)[C@@H](O)[C@H](O)[C@@H]5O[C@@H]5O[C@H](CO)[C@@H](O[C@@H]6O[C@H](CO[C@]7(C(=O)O)C[C@H](O)[C@@H](NC(C)=O)[C@H]([C@H](O)[C@H](O)CO)O7)[C@H](O)[C@H](O)[C@H]6O)[C@H](O)[C@H]5NC(C)=O)[C@@H]4O)[C@H](O)[C@H]3NC(C)=O)[C@H](O)[C@H]2NC(C)=O)NC(=O)CO[C@@H]2O[C@H](CO)[C@@H](O[C@@H]3O[C@H](CO)[C@@H](O[C@@H]4O[C@H](CO[C@H]5O[C@H](CO)[C@@H](O)[C@H](O)[C@@H]5O[C@@H]5O[C@H](CO)[C@@H](O[C@@H]6O[C@H](CO[C@]7(C(=O)O)C[C@H](O)[C@@H](NC(C)=O)[C@H]([C@H](O)[C@H](O)CO)O7)[C@H](O)[C@H](O)[C@H]6O)[C@H](O)[C@H]5NC(C)=O)[C@@H](O)[C@H](O[C@H]5O[C@H](CO)[C@@H](O)[C@H](O)[C@@H]5O[C@@H]5O[C@H](CO)[C@@H](O[C@@H]6O[C@H](CO[C@]7(C(=O)O)C[C@H](O)[C@@H](NC(C)=O)[C@H]([C@H](O)[C@H](O)CO)O7)[C@H](O)[C@H](O)[C@H]6O)[C@H](O)[C@H]5NC(C)=O)[C@@H]4O)[C@H](O)[C@H]3NC(C)=O)[C@H](O)[C@H]2NC(C)=O)CSSC[C@@H](C(=O)N[C@@H](CC(N)=O)C(=O)N[C@@H](CO)C(=O)N[C@@H](Cc2ccccc2)C(=O)N[C@@H](CCCNC(=N)N)C(=O)N[C@@H](Cc2ccc(O)cc2)C(=O)O)NC(=O)CNC(=O)[C@H](CC(C)C)NC(=O)CNC(=O)[C@H](CO)NC(=O)[C@H](CCC(N)=O)NC(=O)[C@H](C)NC(=O)CNC1=O [Compound 2-27, SG-(SG-)Asn-PEG(11)-hANP(1-28)]	0.26	2
